Measured values reported in paper PMC9096165 (Frontiers in Pharmacology, 2022).

What was measured:
TRPV1 [1] = test: TRPV1 protein level in F11 cells (Western blotting); assay type: cell-based; conditions: CYP 100 nM alone
Description: (§1) For these experiments, cells at 18th passage were used.
(§2) Triplicate samples were run for each gene.
Control and treated F11 cells were collected and lysed in an ice-cold RIPA buffer containing protease and phosphatase inhibitor cocktail (Sigma-Aldrich, United States). The extracted proteins were quantified using BCA assay (Thermo, United States). NuPAGE lithium dodecyl sulfate sample buffer (Cat#NP007, Thermo, United States) and NuPAGE sample reducing agent (Cat#NP0004, Thermo, United States) were added to the samples and then put in the Thermoblock (Eppendorf, United Kingdom) at 75°C for 10 min. Protein lysates (30 μg) were separated on NuPAGE bis–tris glycine gradient precast gel (Cat#NP0321PK2, Invitrogen, United States) and electroblotted on a PVDF membrane (Cat#IPVH00010, Millipore, United States) using a semi-dry system (Thermo, United States). Non-specific binding sites were blocked by blocking solution (Cat#000105, Invitrogen, United States) for 15 min at RT. […] The relative densities of the immunoreactive bands were determined and normalized with respect to actin, using Fiji software. […]

F11 cells = test: F11 cell viability (CellTiter AQueous One); assay type: cell-based; conditions: differentiated F11 cells, 24 h, 5 to 200 nM
Experimental: as §1
[…] Cell viability was determined using the colorimetric method CellTiter AQueous One Solution Cell Proliferation Assay (Promega Corporation, United States), as previously reported ([Brandolini et al., 2017]). The quantity of formed formazan, as a function of viability, was measured at 492 nm using an ELISA plate reader, Infinite F200 (Tecan, Männedorf, Swiss). The results from five independent experiments were expressed as absorbance at 492 nm.

CXCL1 = CXCL1 mRNA expression in F11 cells (RT PCR); assay type: cell-based; conditions: CYP 100 nM alone
Description: as §1, §2

urinary bladder = assay type: in vivo; conditions: chronic CYP 75 mg kg^−1 i.p. three times every third day
Experimental: CYP was administered to the animals by the intraperitoneal (i.p.) route (5 ml kg^−1) at the dosage of 75 mg kg^−1 for three times every third day to elicit chronic bladder irritation, as previously described ([Vizzard et al., 1996]).
Animals pre-treated with the vehicle or a single high oral dose of DF2755A (20 mg kg^−1; 12 h before the first CYP administration) followed by repeated lower doses administration (7 mg kg^−1 twice daily for 7 days) during IC development were deeply anesthetized with isoflurane (4%) and then killed.
After killing, rat abdomen was opened through a midline incision, and bladder and proximal urethra were exposed. A catheter was inserted into the bladder through the urethra and a loose ligature was placed around the neck of the urinary bladder. Bladder was inflated with saline via the catheter to slightly distend the bladder and ligature was tightened to maintain proper distension. Bladder was then excised cutting above the insertion point of ureters, and therefore the bladder neck was not included into the bladder sample. Bladders were opened using scissors and, after gross macroscopic evaluation and weighing, each bladder was cut into two equal pieces (named B1 and B2) and weighted again individually. One piece (B1) was placed in Eppendorf, then snap-frozen in liquid nitrogen, and stored at −80°C until quantification using ELISA assay. The second piece (B2) was placed in 10% formalin and stored at room temperature. Then the same samples were placed in 70% ethanol, then processed in paraffin blocks, and then trimmed according to the longitudinal plane to ensure the correct analysis of all the bladder sample. Sections were stained with hematoxylin and eosin (HE), and slides were then digitalized using a Pathscan® Touch scanner in the bright field mode with a ×20 objective. For the microscopic observations of bladder inflammation, the following parameters were analyzed: bladder edema in scores (n = 10/group), bladder hemorrhage in scores (n = 10/group), urothelial loss in scores (n = 10/group), and total inflammatory score, which was calculated by adding all the individual lesion scores (n = 10/group).

CXCR1 = CXCR1 mRNA expression in F11 cells (RT PCR); assay type: cell-based; conditions: CYP 100 nM alone
Description: as §1, §2

TRPV4 = conditions: F11 cells, CYP 100 nM alone
Experimental: F11 hybridoma cell line (ECACC 08062601), chosen as a model of dorsal root ganglion (DRG) neurons ([Platika et al., 1985]; [Brandolini et al., 2017]) was cultivated in DMEM (Corning, United States) supplemented with 10% heat-inactivated FBS (Sigma-Aldrich St. Louis, CO, United States), 1% penicillin/streptomycin, and 1% glutamine (Sigma-Aldrich, United States) at 37°C, in a humidified 95% air and 5% CO2 atmosphere. For these experiments, cells at 18th passage were used. Cells were differentiated with the rat nerve growth factor (rNGF; Sigma-Aldrich, United States). rNGF was dissolved in DMEM with 1% penicillin/streptomycin and 1% glutamine (FBS free) at the final concentration of 50 ng ml^−1. Medium was replaced every 3 days until complete differentiation, which occurred after 7 days.
TRPV1 and TRPV4 mRNA expression and protein levels and CXCR1, CXCR2, and CXCL1 mRNA levels were evaluated in F11 cells exposed to CYP. […] The total RNA concentration was determined in RNAase-free water using Nanodrop, while the concentration was determined using the Qubit Fluorometer 3.0 (Thermo, United States). […] Relative expression levels were calculated for each sample after normalization against the reference gene, using the 2^−ΔΔCt method for comparing relative fold expression differences.

CXCR2 = CXCR2 mRNA expression in F11 cells (RT PCR); assay type: cell-based; conditions: CYP 100 nM alone
Description: as §1, §2

TRPV1 [2] = test: TRPV1 mRNA expression in F11 cells (RT PCR); assay type: cell-based; conditions: CYP 100 nM alone
Description: as §1, §2

[3] = test system: acute CYP-induced IC model; parameters: method as in Dornelles et al., 2014; conditions: acute CYP-induced IC rat model with inflammatory bladder infiltrate; ref Dornelles et al., 2014; cited from earlier work

Structure (SMILES) | TRPV1 protein level versus control (TRPV1 [1]) | neuronal cell viability (F11 cells) | CXCL1 mRNA expression versus control (CXCL1) | bladder hemorrhage (urinary bladder) | inflammatory infiltrate and urothelial hyperplasia in urinary bladder (urinary bladder) | bladder edema, mean score (urinary bladder; score 0–4 (Table 1)) | urothelial loss, mean score (urinary bladder; score 0–4 (Table 1)) | CXCR1 mRNA expression versus control (CXCR1) | TRPV4 mRNA expression versus control (TRPV4) | CXCR2 mRNA expression versus control (CXCR2) | TRPV1 mRNA expression versus control (TRPV1 [2]) | effect on nociceptive behavior [3]
O=P1(N(CCCl)CCCl)NCCCO1 (stereo not drawn) [CYP, Cyclophosphamide, reference compound] | increased | did not modulate neuronal cell viability | significantly increased | no hemorrhage | no inflammatory infiltrate and no urothelial hyperplasia | 0.4 ± 0.16 | 0.1 ± 0.10 | significantly increased | did not change | significantly increased | significantly increased | –
O=C(Nc1ccc([N+](=O)[O-])cc1O)Nc1ccccc1Br [SB225002] | – | – | – | – | – | – | – | – | – | – | – | antinociceptive effect
